US11096930B2, “Substituted imidazopyridine compounds as inhibitors of indoleamine 2,3-dioxygenase and/or tryptophan-2,3-dioxygenase” (IOMet Pharma Ltd., priority 2016, dated 2021)

Columns and labels:
[1] = target: T1, IDO1 (Homo sapiens (Human), UniProt P14902); assay: IDO1 HEK293 Cellular Assay; type: cell-based; details: HEK293 cells transfected with Flag-IDO1 vector; read-out: HEK293 Cell Assay, pIC50 (converted)
Description: IDO1 HEK293 Cellular Assay
Compounds to be tested were serially diluted in ten 3-fold steps in DMSO starting from 10 mM DMSO stocks. Compound dilutions or DMSO alone were then dispensed from the dilution plate into a Greiner black 384-well assay plate (catalog #781086) using an Echo 550 acoustic liquid handler (Labcyte).
HEK293 cell pellets were resuspended to 5×10^5 cells/mL in complete HEK293 culture media (89% DMEM, 10% FBS, 1% penicilllin/streptomycin). Suspended cells (2 mL) were dispensed into each well of a 6-well Corning plate (Catalog #3516). Cells were allowed to attach and were incubated for 20 hours at 37 degrees Celsius in a 5% CO2 incubator. Flag-IDO1 vector (Genscript True ORF Gold, 2 ug) in 150 uL of Opti-MEM medium was added to each well of a Corning 24 well plate (Cat #3527) and incubated for 5 minutes at room temperature. To each well of the 24-well plate was added 150 μL Lipofectamine 2000 (Gibco) and the plate incubated at room temperature for 20-30 minutes. To each well of attached cells in the 6-well plate, 250 μL of the transfection mix from the 24-well plate was gently added to each well and IDO1 protein was allowed to express for 24-30 hours at 37 degrees Celsius in a 5% CO2 incubator.
Media was removed from the cells which were then washed with 2 mL Dulbecco's phosphate-buffered saline (DPBS). After removal of DPBS, 0.5 mL of TrypLE (Gibco) was added and incubated at 5 minutes until cells lift from the surface of the wells. Complete HEK293 culture media (4 mL) was added to each well and cells were collected and pooled into a conical tube. Cells were pelleted at 200×g for 5 minutes and resuspended in an equal volume of complete DMEM medium. Cells were diluted to 4×10^5 cells per mL in complete HEK293 media. L-Tryptophan was added to added to give a final concentration of 200 μM. The diluted transfected cells (50 μL) or nontransfected cells (50 μL) were dispensed into wells of Greiner black 384-well assay plates (catalog #781086) containing previously diluted compounds. The plate is briefly mixed and centrifuged at 200×g for 10 seconds to collect cells at the bottom of the plate. Plates were covered and incubated for 20-24 hours at 37 degrees C. in a 5% CO2 incubator. […] The resulting fluoresence was measured in an Envision plate reader (Perkin Elmer) with a 400/25 nm excitation filter and an 510/20 nm emission filter.
The fluoresence intensity of each well was corrected for the background observed in wells with untransfected cells and was expressed as a fraction of the intensity observed in wells of IDO1 transfected cells and DMSO only. Potencies were calculated by linear least squares fit to the four parameter logistic IC50 equation.

[2] = target: T1, IDO1; assay: IDO1 Enzyme Assay; type: biochemical; details: HIS-tagged IDO1, fluorescence
Description: Compounds to be tested were serially diluted in ten 3-fold steps in DMSO starting from 10 mM DMSO stocks. Compound dilutions or DMSO alone were then dispensed from the dilution plate into a Greiner black 384-well assay plate (catalog #781086) using an Echo 555 acoustic liquid handler (Labcyte).
HIS-tagged IDO1 protein was recombinantly expressed in Escherichia coli using ZYP5052 autoinduction media supplemented with 500 μM delta aminolevulinic acid for 48 hours at 16 degrees Celsius. IDO1 protein was purified using Ni^2+-affinity resin and size exclusion chromatography. Purified protein was then diluted in assay buffer (50 mM Tris pH 7.0, 1% glycerol, 20 μM methylene blue, 0.05% Tween-20, 20 mM sodium ascorbate, 100 units/mL catalase to obtain a final IDO1 concentration of 40 nM. […] were dispensed to wells of the assay plate using a BioRAPTR liquid dispenser (Beckman Coulter). Assay plates containing compound and IDO1 enzyme were incubated at room temperature for 30 minutes. Afterwards, 10 μL of 400 μM tryptophan in assay buffer were added to each well of the assay plate using a BioRAPTR liquid dispenser. Plates were incubated at room temperature for 60 minutes and reactions were quenched by addition of 10 μL of 0.5 M methyl isonipecotate in dimethyl sulfoxide. Plates were sealed and incubated at 37 degrees Celsius for 4 hours or 50 degrees Celsius for 2 hours. The plates are allowed to cool and then centrifuged for 1 minute at 1000×g. The resulting fluoresence was measured in an Envision plate reader (Perkin Elmer) with a 400/25 nm excitation filter and an 510/20 nm emission filter.
Potencies were calculated by linear least squares fit to the four parameter logistic IC50 equation.

T1 sequence (P14902 whole entry): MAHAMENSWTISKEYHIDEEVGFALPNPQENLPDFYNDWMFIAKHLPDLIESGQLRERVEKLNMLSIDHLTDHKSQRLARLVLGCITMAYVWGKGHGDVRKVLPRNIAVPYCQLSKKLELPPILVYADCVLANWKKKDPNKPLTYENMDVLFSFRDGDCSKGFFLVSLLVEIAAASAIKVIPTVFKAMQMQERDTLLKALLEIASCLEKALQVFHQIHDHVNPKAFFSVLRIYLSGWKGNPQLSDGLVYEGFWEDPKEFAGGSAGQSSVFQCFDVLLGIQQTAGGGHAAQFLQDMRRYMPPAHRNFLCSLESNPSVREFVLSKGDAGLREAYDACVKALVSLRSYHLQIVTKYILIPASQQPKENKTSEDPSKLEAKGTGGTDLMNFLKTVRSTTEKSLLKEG

| Structure (SMILES) | IC50 [1] | IDO1 Enzyme Assay, pIC50 [2] |
| --- | --- | --- |
| O=C1OCCC12CCN(c1cc(C(F)(F)F)cc3cncn13)CC2 [Example 17, 8-(7-(trifluoromethyl)imidazo[1,5-a]pyridin-5-yl)-2-oxa-8-azaspiro[4.5]decan-1-one] | 1580 nM | 5.7 |
| O=C1NCCC12CCN(c1cc(C(F)(F)F)cc3cncn13)CC2 [Example 19, 8-(7-(trifluoromethyl)imidazo[1,5-a]pyridin-5-yl)-2,8-diazaspiro[4.5]decan-1-one] | 6310 nM | 5.1 |
| CC1=NC2(CCN(c3cc(C(F)(F)F)cc4cncn34)CC2)C(=O)N1 [Example 18, 2-methyl-8-(7-(trifluoromethyl)imidazo[1,5-a]pyridin-5-yl)-1,3,8-triazaspiro[4.5]dec-1-en-4-one] | 1580 nM | 5.7 |
| CC(=O)N1CCC2(CC1)CCN(c1cc(C(F)(F)F)cc3cncn13)CC2 [Example 20, 1-(9-(7-(Trifluoromethyl)imidazo[1,5-a]pyridin-5-yl)-3,9-diazaspiro[5.5]undecan-3-yl)ethan-1-one] | 2000 nM | 5.2 |
